Laboratory results reported in patent publication US12115218B2 (priority 2018, dated 2024).
Counter-ions that a name gives are not always drawn.

System: Inactivated porcine circovirus type 2 vaccine (SH strain) antigen
Set-up: species or system mice
Conditions: mouse, in vivo

Compound | Antibody titers in mice
c1ccc([C@H]2CN3CCSC3=N2)cc1 [levamisole aqueous solution, levamisole hydrochloride] | no adjuvant synergistic effect was produced
polyinosinic acid-polycytidylic acid | no adjuvant synergistic effect was produced
